“Also recorded” adds a separate entry of the source.
Key:
CCRF-CEM = experiment: NCI-60 panel growth inhibition; assay type: cell-based; conditions: Homo sapiens, Leukemia, mutated RAS Yes, mutated BRAF No
Description: (§1) Table 1 summarizes KG5's effect in 60 NCI cancer cell lines: the NCI-60 panel showing the half maximal growth inhibitory concentration of KG5 and the RAS and BRAF status in 60 human cancer cell lines.

M14 = experiment: NCI-60 panel growth inhibition; assay type: cell-based; conditions: Homo sapiens, Melanoma, mutated RAS No, mutated BRAF Yes
Description: as §1

NCI-H23 = experiment: NCI-60 panel growth inhibition; assay type: cell-based; conditions: Homo sapiens, NSC Lung Cancer, mutated RAS Yes, mutated BRAF No
Description: as §1

SK-OV-3 = experiment: NCI-60 panel growth inhibition; assay type: cell-based; conditions: Homo sapiens, Ovarian Cancer, mutated RAS No, mutated BRAF No
Description: as §1

SW-620 = experiment: NCI-60 panel growth inhibition; assay type: cell-based; conditions: Homo sapiens, Colon Cancer, mutated RAS No, mutated BRAF No
Description: as §1

UACC-257 = experiment: NCI-60 panel growth inhibition; assay type: cell-based; conditions: Homo sapiens, Melanoma, mutated RAS No, mutated BRAF Yes
Description: as §1

[1] = system: U-87 human glioblastoma cells; experiment: Cells in pro-metaphase in orthotopic brain tumor xenografts; assay type: in vivo, mice; conditions: systemic KG5 50 mg/Kg, after three days
Procedure: Phosphorylation of CRAF on serine 338 has been linked to cell proliferation survival as well as breast cancer progression^9-11,14-16. To determine whether KG5 could similarly regulate phospho-5338 RAF in tumors, we analyzed orthotopic […] and brain tumor tissues for the presence of this marker before or after systemic delivery of the drug.
Tumors were generated by injection of RFP-labeled U-87 human glioblastoma cells (10^5 tumorcells in 2 μl of sterile PBS) into the brain of 6-8 week old female nude mice. Tumors were established for 3 weeks before beginning dosing. Mice were dosed with vehicle (10% HS-15) or 50 mg/kg KG5 (i.p. bid) for 3 days prior to harvest. Alternatively, U-87 cells stably expressing WT CRAF or the phospho-mimetic S338D CRAF mutant were injected into the brain of 6-8 week old female nude mice. Brains were harvested at day 15 and fluorescence images recorded using the IVIS-200™ imaging system (Xenogen Corp., Hopkinton, Mass.). Tumor sizes were measured as a function of fluorescence intensity using the ROI function of the IVIS Living Image Software. […]

p-MEK and p-ERK = conditions: cited from earlier work
[2] = bFGF- or VEGF-stimulated endothelial cells; cited from earlier work
FAK or Src = conditions: cited from earlier work
Flt-3 = Flt-3 (Homo sapiens, UniProt P36888); conditions: cited from earlier work
Chain of Flt-3 (P36888 27-993, species assumed): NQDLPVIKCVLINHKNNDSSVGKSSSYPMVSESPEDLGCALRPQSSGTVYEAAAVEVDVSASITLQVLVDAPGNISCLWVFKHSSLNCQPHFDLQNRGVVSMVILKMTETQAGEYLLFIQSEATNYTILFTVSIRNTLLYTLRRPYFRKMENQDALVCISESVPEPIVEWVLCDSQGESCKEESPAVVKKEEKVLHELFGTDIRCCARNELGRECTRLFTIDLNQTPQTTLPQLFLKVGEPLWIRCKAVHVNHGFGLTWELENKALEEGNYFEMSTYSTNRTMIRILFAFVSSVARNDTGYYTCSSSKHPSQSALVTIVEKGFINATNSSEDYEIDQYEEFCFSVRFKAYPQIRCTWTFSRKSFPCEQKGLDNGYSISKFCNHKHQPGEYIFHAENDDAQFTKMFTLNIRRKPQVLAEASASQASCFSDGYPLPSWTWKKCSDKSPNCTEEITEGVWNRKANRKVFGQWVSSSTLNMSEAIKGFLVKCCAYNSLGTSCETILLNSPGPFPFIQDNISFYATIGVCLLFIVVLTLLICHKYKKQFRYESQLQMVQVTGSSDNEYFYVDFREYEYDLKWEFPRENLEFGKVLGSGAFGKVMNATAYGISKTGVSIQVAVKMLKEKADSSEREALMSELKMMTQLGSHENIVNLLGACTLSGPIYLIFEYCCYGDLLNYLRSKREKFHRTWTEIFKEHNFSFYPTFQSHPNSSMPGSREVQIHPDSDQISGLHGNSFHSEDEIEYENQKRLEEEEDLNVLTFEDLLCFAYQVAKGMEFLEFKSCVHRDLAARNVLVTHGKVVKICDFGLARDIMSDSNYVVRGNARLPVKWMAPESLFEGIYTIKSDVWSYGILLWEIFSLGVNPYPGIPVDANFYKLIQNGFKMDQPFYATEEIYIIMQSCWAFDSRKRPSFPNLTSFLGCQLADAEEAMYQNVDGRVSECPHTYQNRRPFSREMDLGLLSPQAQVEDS

PDGFR = conditions: cited from earlier work
CRAF = CRAF (Homo sapiens, UniProt P04049); experiment: CRAF localization to the mitotic spindle, confocal microscopy of XPA-1 cells; assay type: cell-based; set-up: total CRAF and total MEK of lysates from XPA-1 cells treated with PD0325901, Sorafenib, L-779450, PLX4720, KG5 or KG1; endogenous in cells; host or cells: XPA-1
Chain of CRAF (P04049 whole entry): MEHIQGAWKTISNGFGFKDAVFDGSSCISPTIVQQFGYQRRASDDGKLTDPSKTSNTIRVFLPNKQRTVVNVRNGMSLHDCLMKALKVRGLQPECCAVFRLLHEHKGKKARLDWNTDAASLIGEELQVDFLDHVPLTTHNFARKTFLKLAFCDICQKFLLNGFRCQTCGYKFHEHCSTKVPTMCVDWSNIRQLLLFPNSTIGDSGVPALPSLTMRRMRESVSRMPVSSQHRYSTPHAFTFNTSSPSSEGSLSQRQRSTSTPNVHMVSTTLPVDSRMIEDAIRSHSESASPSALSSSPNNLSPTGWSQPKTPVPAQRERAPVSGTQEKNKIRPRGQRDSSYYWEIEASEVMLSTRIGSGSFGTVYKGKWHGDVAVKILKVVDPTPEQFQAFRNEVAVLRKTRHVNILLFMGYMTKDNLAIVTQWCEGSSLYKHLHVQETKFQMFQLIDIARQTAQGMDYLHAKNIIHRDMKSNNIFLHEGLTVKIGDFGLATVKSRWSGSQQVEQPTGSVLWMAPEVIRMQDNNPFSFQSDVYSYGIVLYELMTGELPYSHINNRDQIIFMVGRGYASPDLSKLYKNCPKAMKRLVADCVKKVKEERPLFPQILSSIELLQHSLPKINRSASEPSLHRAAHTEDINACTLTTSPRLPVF
Description: FIG. 35. […] Data are representative of three independent experiments. FIG. 35 (b) Confocal microscopy images of human pancreatic XPA-1 and glioblastoma U251 cells during mitosis, stained for phospho-5338 CRAF (in green), α-tubulin (in red) and DNA (TOPRO-3™ in blue). Scale bar, 10 μm. White arrows indicate localization of phospho-S338 CRAF at the mitotic spindle. FIG. 35 (c) Immunoblot analysis of γ-tubulin immunoprecipitates from human colon carcinoma HCT-116 cells asynchronized and synchronized at pro-metaphase. Data are representative of three independent experiments. FIG. 35(d) Immunohistochemical staining of phospho-S338 CRAF in tumor biopsies from breast cancer patients. Scale bar, 10 μm. FIG. 35(e) Confocal microscopy images of XPA-1 cells treated with KG5, sorafenib, ZM336372, L779450 or paclitaxel and stained for CRAF (in green), γ-tubulin (in red) and DNA (TOPRO-3™ in blue). Scale bar, 10 μm. White arrows indicate localization of CRAF at the spindle pole. White circle indicates the absence of CRAF at the spindle pole.
Cells attached to cover-slips were fixed with cold methanol and permeabilized in PBS containing 0.1% triton for two minutes and blocked for 60 minutes, at room temperature with 2% BSA in PBS. Cells were stained with antibodies to CRAF (Abcam), phospho-serine 338 CRAF (SantaCruz), phospho-serine 338 CRAF (Thermo Scientific), a tubulin (Calbiochem), γ tubulin (Abcam), laminB (SantaCruz), Plk1 (Abcam), phospho-T210 Plk1 (Abcam), or phospho-T288 Aurora A (cell signaling). All primary antibodies were used at 1:100 dilution, for two hours at room temperature. After washing several times with PBS, cells were stained for two hours at room temperature, with secondary antibody specific for mouse, rabbit or goat (Invitrogen), as appropriate, diluted 1:300 and co-incubated with the DNA dye TOPRO-3™ (1:500) (Invitrogen). Samples were mounted in VECTASHIELD™ hard-set mounting media (Vector Laboratories) and imaged on a Nikon ECLIPSE C1™ confocal microscope with a 1.4 NA 60× oil-immersion lens, using minimum pinhole (30 μm). Images were captured using EZ-C1-3.50 imaging software.

SMILES: CSc1nc(N)cc(Oc2ccc(-c3nnc(Nc4cccc(C(F)(F)F)c4)[nH]3)cc2)n1 [KG5]
- GI50 (CCRF-CEM): 380 nM
- GI50 (M14): 347 nM
- GI50 (NCI-H23): 525 nM
- GI50 (SK-OV-3): 562 nM
- GI50 (SW-620): 617 nM
- GI50 (UACC-257): 407 nM
- cells at pro-metaphase in orthotopic brain tumor tissues [1]: accumulation of cells at pro-metaphase
- p-MEK and p-ERK (p-MEK and p-ERK; bFGF- or VEGF-stimulated endothelial cells): blocked
- bFGF- or VEGF-mediated phosphorylation of MEK on S217/S221 (p-MEK and p-ERK; endothelial cells): inhibited
- bFGF- or VEGF-mediated phosphorylation of MEK on S298 (p-MEK and p-ERK; endothelial cells): not on S298
- p-Aid [2]: did not suppress
- integrin-mediated signaling to FAK or Src (FAK or Src): no effect
- inhibition of Flt-3 (Flt-3): inhibits
- inhibition of PDGFR (PDGFR): inhibits
- CRAF localization to the mitotic spindle (CRAF): prevents CRAF recruitment to the mitotic spindle; also recorded: prevented this localization
- prevents phospho-S338 CRAF recruitment to the mitotic spindle (CRAF): prevents phospho-S338 CRAF recruitment to the mitotic spindle
